Our source for the IC50 values is US20140315933A1, “CHEMICAL COMPOUNDS” (Pfizer Limited, priority 2013, published 2014).

Counter-ions that a name gives are not always drawn.

In one experiment the target is T1, URAT-1 transporter (Homo sapiens, UniProt Q96S37).
T1 construct: expressed in transfected cells
Put plainly: URAT-1 inhibitor activity: [14C]-uric acid uptake into CHO-URAT1(L)GFP#8 (CHO#8) cells, scintillation proximity. The experiment is classed as cell-based.
Conditions: not given
An excerpt: The nucleotide sequence for the long isoform of URAT1 (NM_144585) was C-terminally fused to that of enhanced green fluorescent protein (eGFP) (hereinafter referred to as URAT1(L)GFP). The combined sequence was codon-optimised and custom synthesized. The synthesized sequence was generated in pDONR221 Gateway entry vector (Invitrogen Life Technologies) prior to cloning in pLenti6.3/V5 Gateway destination vector (Invitrogen Life Technologies).
Lentiviral particles were generated according to ViraPower HiPerform expression system procedure (Invitrogen Life Technologies) and used to transduce CHO cells. Blasticidin selection enabled the generation of a stable clonal pool of cells, confirmed by expression of GFP and V5 epitope. The clonal pools were sorted using fluorescence-activated cell sorting (FACS) on the basis of GFP expression with the gating set at the top 50% of expression into single cells which were subsequently expanded to generate clonal lines. […] This cell line was used for all screening activities and is referred to as CHO-URAT1(L)GFP#8 or CHO#8.
The potency of the compounds of formula (I) as inhibitors of the URAT-1 transporter was determined as follows.
CHO#8 cells were cultured in cell line maintenance flasks in medium consisting of Dulbecco's modified Eagle medium (DMEM) with high glucose and sodium pyruvate (4.5 g of glucose per litre, Invitrogen Life Technologies), supplemented with heat-inactivated foetal bovine serum (FBC, 10% v/v), 1×NEAA (non-essential amino acids) and blasticidin (10 μg/ml). Cultures were grown in 175 cm^2 tissue culture flasks in a humidified incubator at approximately 37° C. in approximately 95% air/5% CO2. Near confluent CHO#8 cell cultures were harvested by trypsinisation, re-suspended in culture medium and the process was repeated once or twice weekly to provide sufficient cells for use.
Assay ready flasks were generated by the same method, except the cells were not cultured in blasticidin.
Assay ready frozen cells were generated by freezing 40,000,000 cells in 1 ml of FBS (without blasticidin) containing 10% DMSO per vial. One vial was sufficient for 5 assay plates. Each vial was thawed rapidly to 37° C., washed and re-suspended in pre-warmed culture medium for seeding onto assay plates.
CHO#8 cells were seeded onto Cytostar™ 96-well plates at a density of […]. The cells were cultured for 1 day at approximately 37° C. in a humidified incubator containing approximately 5% CO2 in air. After approximately 24 hours culture, cells were used for uptake experiments.
On the day of assay, culture medium was removed from the wells and the cells were washed once with 50 μL of chloride-containing buffer (136.7 mM NaCl, 5.36 mM KCl, 0.952 mM CaCl2, 0.441 mM KH2PO4, 0.812 mM MgSO4, 5.6 mM D-glucose, 0.383 mM Na2HPO4.2H2O, 10 mM HEPES, pH 7.4 with NaOH). The cells were pre-incubated with another 50 μL of chloride-containing buffer for one hour at approximately 37° C. in a humidified incubator containing approximately 5% CO2 in air.
Assay compound plates were prepared by diluting the compounds of formula (I) with chloride-free buffer (125 mM Na-gluconate, 4.8 mM K-gluconate, 1.3 mM Ca-gluconate, 1.2 mM KH2PO4, 1.2 mM MgSO4, 5.6 mM D-glucose, 25 mM HEPES, pH 7.4 with NaOH) in 100% DMSO to a final concentration of 1% DMSO. [^14C]-Uric Uric acid working stock was made by addition of radiolabeled compound to a final concentration of 120 nM in chloride-free buffer. In all wells, the final assay concentration of solvent (DMSO) was 0.25%; the final assay concentration of [^14C]-uric acid was 30 nM in chloride-free buffer and the final compound of formula (I) concentrations ranged from 0 to 10 μM.
After pre-incubation, cells were washed with 50 μL of chloride-free buffer and another 50 μL of chloride-free buffer was added. […]
`N#Cc1cc(Oc2ccc(S(=O)(=O)Nc3ncns3)cc2Cl)ccc1F` [compound 207] registered an IC50 of 747 nM.
On the same count and under the same terms, in the case of `N#Cc1cc(S(=O)(=O)Nc2nccs2)ccc1Oc1ccc(C(F)(F)F)cc1Br` [compound 166] it was 2680 nM.
For the compound `N#Cc1cc(S(=O)(=O)Nc2nccs2)ccc1Oc1ccc(Cl)cc1C(F)(F)F` [compound 163], the half-inhibitory concentration (IC50) was 681 nM.
In the case of `O=S(=O)(Nc1nncs1)c1cc(Cl)c(Oc2c(F)cccc2Cl)cc1F` [compound 332], the half-inhibitory concentration (IC50) was greater than 2380 nM.
In turn, `N#Cc1ccc(Oc2ccc(S(=O)(=O)Nc3nncs3)cc2Cl)cc1Cl` [compound 203] gave a concentration for half-maximal inhibition (IC50) of 387 nM.
On the same count and under the same terms, in the case of `N#Cc1cc(S(=O)(=O)Nc2nccs2)ccc1Oc1ccccc1F` [compound 183] it was greater than 6030 nM; in that of `N#Cc1ccc(Oc2cc(F)c(S(=O)(=O)Nc3ncns3)cc2Cl)c(OC(F)F)c1` [Example 155, 5-chloro-4-[4-cyano-2-(difluoromethoxy)phenoxy]-2-fluoro-N-(1,2,4-thiadiazol-5-yl)benzenesulfonamide diethylamine salt], greater than 7250 nM.
Same read-out and setting: next, `COc1cccc(F)c1Oc1ccc(S(=O)(=O)Nc2ncns2)cc1C#N` [compound 265]: 2430 nM.
`Cc1cncc(Oc2ccc(S(=O)(=O)Nc3ncns3)cc2C#N)c1` [compound 252, trifluoroacetic acid salt]: the IC50 was 1110 nM.
The compound `COc1cc(Cl)ccc1Oc1cc(F)c(S(=O)(=O)Nc2ncns2)cc1Cl` [Example 154, 5-chloro-4-(4-chloro-2-methoxyphenoxy)-2-fluoro-N-(1,2,4-thiadiazol-5-yl)benzenesulfonamide] registered an IC50 of 1630 nM.
Same read-out and setting: next, `N#Cc1cc(S(=O)(=O)Nc2ncc(F)s2)ccc1Oc1ccccc1F` [Example 104, 3-cyano-4-(2-fluorophenoxy)-N-(5-fluoro-1,3-thiazol-2-yl)benzenesulfonamide]: 2620 nM; `N#Cc1cc(S(=O)(=O)Nc2ncc(F)s2)ccc1Oc1cccc(F)c1F` [Example 114, 3-cyano-4-(2,3-difluorophenoxy)-N-(5-fluoro-1,3-thiazol-2-yl)benzenesulfonamide]: 4410 nM; `Cc1cc(Oc2ccc(S(=O)(=O)Nc3nccs3)cc2F)ccc1F` [Example 74, 3-fluoro-4-(4-fluoro-3-methylphenoxy)-N-(1,3-thiazol-2-yl)benzenesulfonamide]: greater than 3440 nM.
On the same count and under the same terms, in the case of `Cc1nocc1NS(=O)(=O)c1ccc(Oc2ccc(C#N)c(Cl)c2)c(C#N)c1` [Example 76, 4-(3-chloro-4-cyanophenoxy)-3-cyano-N-(3-methyl-1,2-oxazol-4-yl)benzenesulfonamide] it was 93 nM; in that of `COc1ccc(C(F)(F)F)cc1Oc1ccc(S(=O)(=O)Nc2ncns2)cc1C#N` [Example 29, 3-cyano-4-[2-methoxy-5-(trifluoromethyl)phenoxy]-N-(1,2,4-thiadiazol-5-yl)benzenesulfonamide diethylamine salt], greater than 6080 nM; in that of `N#Cc1cc(S(=O)(=O)Nc2cscn2)ccc1Oc1ccc(Cl)cc1OC(F)F` [Example 148, 4-[4-chloro-2-(difluoromethoxy)phenoxy]-3-cyano-N-(1,3-thiazol-4-yl)benzenesulfonamide], 118 nM.
On the same count and under the same terms, next, `N#Cc1cc(S(=O)(=O)Nc2ncc(F)s2)ccc1Oc1cc(F)cc(C(F)(F)F)c1` [Example 139, 3-cyano-N-(5-fluoro-1,3-thiazol-2-yl)-4-[3-fluoro-5-(trifluoromethyl)phenoxy]benzenesulfonamide]: 3380 nM.
As for `N#Cc1cc(S(=O)(=O)Nc2ncc(F)s2)ccc1Oc1cc(C(F)(F)F)cc(C(F)(F)F)c1` [Example 138, 4-[3,5-bis(trifluoromethyl)phenoxy]-3-cyano-N-(5-fluoro-1,3-thiazol-2-yl)benzenesulfonamide], 3470 nM corresponded to half-maximal inhibition (IC50).

Still in this experiment, the particulars now being: inhibition of [14C]-uric acid (30 nM) uptake into CHO#8 cells; compound 0 to 10 μM; 4 parameter logistic fit.
The compound “5-chloro-4-(3,4-difluorophenoxy)-2-fluoro-N-(1,3-thiazol-4-yl)benzenesulfonamide [compound 230]” showed a half-inhibitory concentration (IC50) of 747 nM.
